Columns and labels:
Type in all cases: cell-based
[1] = test system: HMC3 cells; test: Intracellular ROS level by CellROX (fluorescent imaging and flow cytometry); details: HMC3, 50 nM RSL3 2 h, then 50 μM compound 3 h
Description: (§1) For flow cytometry, HMC3 cells (seeded 50,000 cells per well on 24-well plate one day prior to the experiment) were pretreated with 50 nM RSL3 for 2 h. […] After which medium was replaced with BODIPY™ 581/591C11 (10 μM, Invitrogen) or CellROX™ Green (5 μM, Invitrogen) for 30 min staining. Cells were then washed 3 times with PBS and collected. Fluorescence was measured by BD FACSympgony A5.2 SORP Flow Cell Analyzer (BD Biosciences).
For fluorescent imaging, 10,000 cells per well of HMC3 were laid on cover slip and incubated overnight. After the same compound treatment as described above in this section, cells were subsequently incubated with CellROX™ Green and Hoechst 34580 (MCE) for 30 min. After incubation, cells were washed 3 times gently with PBS. Cover slips were then attached to glass slides by Anti-Fade Fluorescence Mounting Medium (Abcam) and imaged via ECLIPSE Ti fluorescence microscope (Nikon). Fluorescent intensity was quantified using imageJ software.
To further evaluate the anti-ferroptotic properties of bilobalide analogues, we tested its effect on the total level of intracellular reactive oxygen species (ROS), we performed fluorescent staining on the HMC3 cell line using CellROX, which is a probe which can emit green fluorescence after reacting with ROS. […]

[2] = test system: HMC3 cells; test: Lipid peroxidation level by flow cytometry using C11-BODIPY; details: HMC3, 50 nM RSL3 2 h, then 50, 25 and 12.5 μM compound 3 h
Description: as §1
Disequilibrium ROS level acts as a direct initiator of lipid peroxidation, which is one of the major hallmarks of ferroptosis. In this example, HMC3 cells according to the conditions in Table 4 were subjected to measurement of lipid peroxidation level using flow cytometry and the lipid peroxidation sensor C11-BODIPY.
For flow cytometry, HMC3 cells (seeded 50,000 cells per well on 24-well plate one day prior to the experiment) were pretreated with 50 nM RSL3 for 2 h. After RSL3 treatment, medium was replaced by DMSO (0.1%) only, SXQ087-1 (10, 5 and 2.5 μM), following by 3 h treatment. After which medium was replaced with BODIPY™ 581/591C11 (10 μM, Invitrogen) for 30 min staining. Cells were then washed 3 times with PBS and collected. Fluorescence was measured by BD FACSympgony A5.2 SORP Flow Cell Analyzer (BD Biosciences).
Lipid peroxidation is one of the major hallmarks of ferroptosis. In this example, HMC3 cells according to the conditions in Table 5 were subjected to measurement of lipid peroxidation level using flow cytometry and the lipid peroxidation sensor C11-BODIPY.

[3] = test system: GPX4; test: GPX4 protein level by Western-blot
From the text: As mentioned above, RSL3 treatment results in an oxidized environment in cells, which promotes the CMA to scavenge damaged proteins including GPX4 or glyceraldehyde-3-phosphate dehydrogenase (GAPDH), a well-known CMA substrate. To gain insights into the mechanism of action of bilobalide analogue XBB-037 against the RSL3-induced ferroptosis, HMC3 cells were pre-treated with RSL3, followed by treatment with or without bilobalide analogue XBB-037.
In FIN56 assay, HMC3 (300,000 cells per well on 6-well plate) was pre-treated with FIN56 (2.5, 1.25, 0.625 μM) for 2 h, followed by 8 h treatment of DMSO only (0.1%) or XBB-037 (50 μM). In RSL3 assay, HMC3 (300,000 cells per well on 6-well plate) was pre-treated with RSL3 (750, 500, 250 nM) for 2 h, followed by 4 h or 8 h treatment of DMSO only (0.1%) or XBB-037 (50 μM). […] Antibodies for GPX4 (52455, CST) was used at 1:500 dilution, β-Actin (AC026, ABclonal) was used at 1:400,000 dilution, GAPDH (AC035, ABclonal) was used at 1:3000 dilution. […] Band intensity was normalized by image lab software.
Now referring to FIGS. 7E-7F, GPX4 levels in HMC3 cells pre-treated with RSL3 are shown. Protein levels of GPX4 and […] at 0, 250, 500 or 750 nM RSL3 were measured by Western-blot. HMC3 cells were pretreated with RSL3 for 2 hours and then treated with or without 50 μM bilobalide analogue XBB-037 for 4 hours.
In addition to […], FIN56 was further used to investigate the GPX4 regulation of bilobalide analogue XBB-037. As mentioned above, FIN56 is a Class III ferroptosis inducer, which causes the depletion of cellular GPX4 levels without affecting GPX4 activity. In this experiment, HMC3 cells were pretreated with FIN56 for 2 hours and then treated with or without 50 μM XBB-037 for 8 hours. Protein levels were measured by Western-blotting using indicated antibodies. Data were plotted as mean±s.d., n=3 technical replicates. **p<0.01. Statistical analyses were performed by two-way ANOVA with multiple comparisons using Two-stage linear step-up procedure of Benjamini, Krieger and Yekutieli multiple comparisons test. […]

Structure (SMILES): CC(C)(C)[C@]1(O)C[C@@H]2OC(=O)C[C@@]23C(=O)O[C@@H]2N(c4ccc(N)cc4)C(=O)[C@H](OC(=O)c4ccccc4)[C@]213 [XBB-037, 4-(3aS,5aS,8R,9R,10aS)-8-(benzoyloxy)-9-(tert-butyl)-9-hydroxy-2,4,7-trioxohexahydro-4H,9H-furo[3″,2″:2′,3′]cyclopenta[1′,2′:3,4]furo[2,3-b]pyrrol-6(5aH)-yl)benzenaminium chloride]
- intracellular ROS level (CellROX fluorescent staining) [1]: significantly reduced intracellular ROS level
- lipid peroxidation level (C11-BODIPY) [2]: significant down-regulation of RSL3-induced lipid peroxidation accumulation in a dose-dependent manner
- GPX4 level after FIN56 ([3]; HMC3, FIN56 0.625, 1.25, 2.5 μM 2 h, then 50 μM compound 8 h): significantly restored GPX4 level
- GPX4 level after RSL3 ([3]; HMC3, RSL3 0, 250, 500 or 750 nM 2 h, then 50 μM compound 4 h): RSL3-induced GPX4 degradation was reduced
